# According to patent US20110033430A1, “METHODS FOR THE INDUCTION OF A CELL TO ENTER THE ISLET 1+ LINEAGE AND A METHOD FOR THE EXPANSION THEREOF” (THE GENERAL HOSPITAL CORPORATION, priority 2007, published 2011):
# Entries after “also recorded” stand apart in the source; their conditions may differ.
# Experiments:
# [1] = tested on: postnatal isl1+ cardiovascular progenitors; experiment: Expansion of postnatal isl1+ cardiovascular progenitors, isl1 immunostaining; format: cell-based, mouse; parameters: increase of number of isl1+ progenitors versus control: dose or concentration left out as unconfirmed; settings: for number of isl1+ progenitors: isl1 immunostaining, versus control
# Procedure: Immunohistochemical Analyses and lacZ Staining. Cells in culture or paraffin embedded sections were fixed with 4% paraformaldehyde and subjected to immunostaining. For mouse embryo cryosections, they were saturated with 20% sucrose followed by section and 2% PFA fix for 10 min at room temperature. The following primary antibodies were used in this study: isl1 (mouse monoclonal antibody, clone 39.4D5, clone 2D6 (Developmental Studies Hybridoma Bank, 1:100), cardiac troponin T (mouse monoclonal antibody, NeoMarkers, 1:200), smooth muscle myosin heavy chain (rabbit polyclonal, Biomedical Technologies Inc., 1:100), smooth muscle actin (mouse monoclonal, clone 1A4, Dako, 1:100; rabbit polyclonal, Abcam), phosphohistone H3 (rabbit polyclonal, Upstate). Alexa Fluor 488- or Alexa Fluor 594-conjugated secondary antibodies specific to the appropriate species were used (Molecular Probes, 1:350). 3D reconstruction was done using Winsuf from Surfdriver Software. For immunoperoxidase staining, the VECTASTAIN ABC® system (VECTOR Laboratories) was used, accordingly to the vendors' instructions. 5 μm frozen sections and cultured cells were fixed with 0.2% and 0.05% glutaraldehyde respectively for 10 min at 4° C. followed by 3 times wash with PBS. LacZ stainings were then performed on these samples by incubating with X-Gal solution containing 40 mM HEPES, pH 7.4, 5 mM K3(Fe(CN)6), 5 mM K4(Fe(CN)6), 2 mM MgCl2, 15 mM NaCl, and 1 mg/ml X-Gal. For LacZ staining on EB-derived clones expanded on CMC, 0.02% NP-40 was added to the X-Gal solution for better permeabilization. When combining LacZ staining with immunoperoxidase analyses, samples were processed first for LacZ staining at room temperature over night, followed by a re-fixation with 4% paraformaldehyde prior to the immunoperoxidase stainings for specific epitopes or by re-fixation with 2% gluteraldehyde to perform EM studies.
# Statistic Analysis. Data were analyzed with two-tailed Student's t test and the results reported are statistically significant with p value <0.05. Standard error of the mean (SEM) is given for each mean value. For immunofluorescent analyses for postnatal isl1^+ cardiovascular progenitors, the cells within the whole well in an 8-well chamber slide were examined for Isl1 expression to obtain better statistic comparison.
# Although there was only a small increase over the control, the effect of these compounds was highly reproducible and statistically significant (p<0.05, 0.01, or 0.001, FIG. 2C). […] Two of these compounds were unknown (compound A and compound B), and the third was 6-bromoindirubin-3′-oxime (BIO), previously shown to be an inhibitor of GSK-3 (Meijer et al., 2003). BIO has been recently shown to promote self-renewal of both human and mouse ES cells through activation of the wnt/β-catenin pathway in combination with other signaling inputs (Sato et al., 2004). The inventors explored the role of BIO on the renewal of isl1^+ progenitors.
# Wnt/β-Catenin Pathway Plays a Pivotal Role in the Control of Isl1+ Progenitor Expansion. […] The inventors examined whether Wnt3a, a well-established ligand in the Wnt/β-catenin pathway (Logan and Nusse, 2004), was able to expand postnatal isl1^+ progenitors.
# [2] = tested on: anterior heart field isl1+ progenitors (AHF-GFP ES cells); experiment: Expansion of ES cell-derived anterior heart field GFP+/isl1+ cells on CMC feeder, FACS; format: cell-based, mouse; settings: 7 days on CMC feeder, versus control
# Procedure: Differentiation was induced by forming embryoid bodies (EB's) in hanging drops of 600 cells in 15 μL of media without LIF. On day 6, the EB's were trypsinized into single cell suspension and sorted on the basis of GFP expression using flow cytometry. GFP positive cells were plated on a neonatal cardiac mesenchymal feeder layer for 7 days with one of four conditions: DMSO, BIO, and conditioned media from either control cells (L-Cells) or cells overexpressing wnt3A. After 7 days of expansion on the cardiac mesenchymal feeder layer, the cells were trypsinized and FACS sorted. Differentiation of the GFP positive cells was triggered as follow: into myocytes, on fibronectin by using DMEM/M199 (4:1 ratio) medium containing 10% horse serum and 5% FBS; into SM cells, on fibronectin by using DMEM/F12 containing B27 supplement, 2% FBS, and 10 ng/ml EGF.
# To directly determine whether Wnt ligands are secreted from the CMC to promote the renewal of isl1^+ progenitors in a paracrine manner, the inventors developed an in vitro reconstitution of the mesenchymal niche.
# To further characterize the nature of the CMC-derived cues, the inventors tested the ability of Wnt3a to reproduce this effect.
# [3] = tested on: human neonatal isl1+ progenitors; experiment: Expansion of human neonatal isl1+ progenitors, isl1 immunostaining; format: cell-based; settings: human neonatal CMC, 4 days
# Procedure: Isolation and Cell Culture Conditions of Human Postnatal Cardiac Progenitors. Biopsies are cut in small pieces and washed in solution A (10 mM Hepes, 35 mM NaCl, 10 mM glucose, 134 mM sucrose, 16 mM Na2HPO4, 25 mM NaHCO3, 7.75 mM KCl, 1.18 mM KH2PO4, pH 7.4), supplemented with 30 mM 2,3 butanedione 2-monoxime and 0.5 mM EGTA. First digestion step is performed in solution A supplemented with 0.5% BSA, 200 UI/ml of collagenase type II (Worthington) and 6 UI/ml protease type XXIV (Sigma) for 20 min at 37° C. to remove red blood cells and cell debris. Four digestion steps are performed in solution A supplemented with 400 UI/ml collagenase type V for 20 min at 37° C. and centrifuged at 30×g for 1 min. The supernatant is neutralized from the collagenase by adding ⅕ of NCS (newborn calf serum) and are centrifuged at 1300 rpm for 3-5 min. Pellet is resuspended in DMEM supplemented with 10% NCS, 5% FBS and Pen-Strep, and cells are seeded on chamber slide. BIO was added to the culture at different doses in complete progenitor medium and cultured for 4 days prior to immunostaining for Isl1.
# In order to test whether BIO was capable of expanding human neonatal isl1^+ progenitors, human neonatal CMC were isolated from the biopsies of patients with congenital heart defects into single cells and cultured for 4 days in the presence or absence of BIO.
# [4] = tested on: postnatal isl1+ progenitors in cardiac mesenchymal cells (CMC); experiment: High-throughput chemical screening: β-gal activity quantified by luminescence (Beto-Glo); format: cell-based, mouse; settings: CMC with isl1+ progenitors, 4 days treatment, versus DMSO control
# Procedure: Progenitors and High-Throughput Chemical Screening. […] Briefly, 30-40 hearts from 1-5 day-old isl1-mER-Cre-mER/R26R pups were used to prepare CMC, containing isl1+ progenitors marked by β-galactosidase. 4-OH-TM (Sigma), active form of tamoxifen, was added to the culture 1 day after plating at 1 μm. These were expanded for 7 days, trypsinized, and seeded at a density of 3,000 cells per well in 384-well plates.
# Isolation of Murine Postnatal Cardiac Progenitors and High-throughput Chemical Screening. […] Briefly, 30-40 hearts from 1-5 day-old is1-mER-Cre-mER/R26R pups were used to prepare CMC, containing isl1^+ progenitors marked by β-galactosidase. 4-OH-TM (Sigma), active form of tamoxifen, was added to the culture 1 day after plating at 1 μm. These were expanded for 7 days, then trypsinized, and seeded at a density of 3,000 cells per well in a 384-well plate.
# To find cardiac mesenchymal cells (CMC)-derived environmental cues involved in the renewal of isl1+ progenitors, the inventors developed a high-throughput chemical screening system, based on the coculture of CMC with postnatal isl1+ progenitors (FIG. 2A). […] The inventors used this library to screen for small molecules that would expand the rare population of postnatal isl1+ progenitors.
# CMC = experiment: Cleaved caspase-3 immunostaining (apoptosis); format: cell-based, mouse; settings: treated CMC
# Excerpt: To further validate the specificity of BIO function, the inventors tested two other ATP-competitive GSK-3-specific inhibitors: an acetoxime analog of BIO and 1-Azakenpaullone (Kunick et al., 2004; Meijer et al., 2003). […] Taken together, the inventors have discovered that BIO promotes the expansion of isl1+ progenitors by inhibiting GSK-3 activity.
# other protein kinases = settings: Plotkin et al., 2003; cited from earlier work
# murine Wls/Evi = target: T1, murine Wls/Evi (Mus musculus, UniProt Q6DID7); experiment: Wnt reporter (superTOPFLASH) coculture with siRNA-transfected Wnt3a-producing cells, luciferase; format: cell-based; settings: coculture with transfected Wnt3a-secreting cells, versus control
# T1 construct: endogenous in cells; host or cells: Wnt3a-producing (Wnt3a-secreting) cell line (ATCC), cocultured with superTOPFLASH Wnt reporter cells
# T1 sequence (Q6DID7 1-541): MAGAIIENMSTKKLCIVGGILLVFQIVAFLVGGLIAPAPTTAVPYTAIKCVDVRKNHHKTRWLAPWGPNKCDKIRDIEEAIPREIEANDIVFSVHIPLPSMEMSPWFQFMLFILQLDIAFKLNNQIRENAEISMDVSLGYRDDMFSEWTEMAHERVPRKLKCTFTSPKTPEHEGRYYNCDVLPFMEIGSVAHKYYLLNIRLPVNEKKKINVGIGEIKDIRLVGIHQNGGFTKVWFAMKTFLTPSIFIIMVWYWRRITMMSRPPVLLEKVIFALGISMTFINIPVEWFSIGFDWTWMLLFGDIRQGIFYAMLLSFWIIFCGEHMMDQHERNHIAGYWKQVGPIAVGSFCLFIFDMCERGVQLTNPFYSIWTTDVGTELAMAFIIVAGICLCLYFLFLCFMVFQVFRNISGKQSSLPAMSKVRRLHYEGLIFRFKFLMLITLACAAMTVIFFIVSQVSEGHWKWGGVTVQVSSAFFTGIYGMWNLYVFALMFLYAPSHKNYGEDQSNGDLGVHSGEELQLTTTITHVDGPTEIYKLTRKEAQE
# Excerpt: Production of Reagents for Wnt Pathway. Wnt3a or control-conditioned medium was produced as following. A Wnt3a-secreting cell line (ATCC) was allowed to grow to conflency and subcultured at 1:20 ratio prior to replenish with fresh medium. Three batches of conditioned medium were harvested every 48 hrs. Dkk1-conditioned medium was produced by transiently transfecting a Dkk1-expressing cDNA (generously provided by Dr. Randall T. Moon) into the HEK293T cell line with FuGENE 6 (Roche). The supernatant was harvested 72 hrs after transfection. A Wnt-reporter cell line, superTOPFLASH, was a generous gift from Dr. Randall T. Moon.
# Small hairpin RNAs (shRNAs) oligonucleotide sequences were designed based on the following target sequences: siWLS-A ([…]) (SEQ ID NO:1) and siWLS-B (GGGTTACCGTGATGATATG, (SEQ ID NO:2) and subcloned into the retro-viral vector, RNAi-Ready pSIREN-RetroQ-DsRed-Express (Clontech) according to vendor's instructions. Negative control shRNA annealed oligonucleotide was provided by the vendor and cloned to the same vector. Retro-viral siRNAi particles were produced by transiently transfect these vectors into the packaging cell line EcoPack 2-293 cells with GENE 6 (Roche). Viral supernatant was harvested 72 hrs after transfection.
# The inventors confirmed this effect by blocking the secretion of Wnt ligands from the CMC. […]
# [5] = tested on: isl1-nlacZ knockin ES cell-derived precursors; experiment: Prespecification of mesodermal precursors toward MICPs on CMC feeder, single β-gal+ cells after 24 hr; format: cell-based, mouse; settings: 24 hr on CMC feeder, versus control
# Procedure: Immunohistochemical Analyses and lacZ Staining. Cells in culture or paraffin embedded sections were fixed with 4% paraformaldehyde and subjected to immunostaining. For mouse embryo cryosections, they were saturated with 20% sucrose followed by section and 2% PFA fix for 10 min at room temperature. The following primary antibodies were used in this study: isl1 (mouse monoclonal antibody, clone 39.4D5, clone 2D6 (Developmental Studies Hybridoma Bank, 1:100), cardiac troponin T (mouse monoclonal antibody, NeoMarkers, 1:200), smooth muscle myosin heavy chain (rabbit polyclonal, Biomedical Technologies Inc., 1:100), smooth muscle actin (mouse monoclonal, clone 1A4, Dako, 1:100; rabbit polyclonal, Abcam), phosphohistone H3 (rabbit polyclonal, Upstate). Alexa Fluor 488- or Alexa Fluor 594-conjugated secondary antibodies specific to the appropriate species were used (Molecular Probes, 1:350). 3D reconstruction was done using Winsuf from Surfdriver Software. […]
# The wnt/β-Catenin Pathway Regulates the Prespecification, Expansion, and Differentiation of Isl1+ Cardiovascular Progenitors. […] To score the effect of the CMC feeder on the prespecification of mesodermal precursors toward MICPs, the inventors quantified the single b-gal^+ cells 24 hr after treatment with various reagents (FIG. 7A). […]
compound,measurement,setting,value
O=C1Cc2c([nH]c3ccc(Br)cc23)-c2ncccc2N1 [1-Azakenpaullone],number of isl1+ progenitors,[1],substantially increased
"O=C1Nc2cc(Br)ccc2/C1=C1/Nc2ccccc2/C1=N\O [BIO, 6-bromoindirubin-3′-oxime]",expansion of GFP+/Isl1+ anterior heart field cells,[2],marked expansion; also recorded: greater expansion
same,number of human Isl1+ progenitors,[3],markedly increased
same,β-gal activity (luciferase activity),[4],significantly increase
same,increase of number of isl1+ progenitors versus control,[1],7 fold
same,"cluster formation of isl1+ progenitors, increase versus control",[1]; BIO at 2.5 μM,11.6 fold
same,number of isl1+ progenitors,[1],substantially increase; also recorded: increased the number of isl1^+ progenitors in a dose-dependent manner
same,formation of isl1+ clusters,[1]; versus control treated samples,promoted isl1^+ progenitors to form large clusters
same,"apoptosis, cleaved caspase-3 immunostaining",CMC,no appreciable apoptosis
CC(=O)O/N=C1/C(=C2/C(=O)Nc3cc(Br)ccc32)Nc2ccccc21 [acetoxime analog of BIO],number of isl1+ progenitors,[1],substantially increased
GSK-3 peptide inhibitor: cell-permeable and substrate-competitive GSK-3 peptide inhibitor (GKEAPPAPPQSP),inhibitory effect on other protein kinases,other protein kinases,negligible inhibitory effect
same,number of isl1+ progenitors,[1],significantly expand
"siWLS-A: siRNA/shRNA against murine Wls/Evi, target sequence CACAAATCCTTTCTACAGTAT (the letters are possibly those of the target site)",luciferase activity of Wnt reporter cells (Wnt3a secretion),murine Wls/Evi,significant reduction; also recorded: significantly decreased
same,formation of MICPs (single β-gal+ cells),[5],significantly increased
"siWLS-B: siRNA/shRNA against murine Wls/Evi, target sequence GGGTTACCGTGATGATATG (the letters are possibly those of the target site)",luciferase activity of Wnt reporter cells (Wnt3a secretion),murine Wls/Evi,significant reduction; also recorded: significantly decreased
